Reference: ChEMBL document CHEMBL2331157, “Structure-activity relationships of 6-(aminomethylphenoxy)-benzoxaborole derivatives as anti-inflammatory agent” (Bioorg Med Chem Lett, 2013)

Key:
PBMC [1] = test: Antiinflammatory activity in human PBMCs assessed as inhibition of LPS-induced IL1-beta release incubated for 15 mins prior to LPS challenge measured after 24 hrs by HTRF assay; type: functional, cell-based
PBMC [2] = test: Antiinflammatory activity in human PBMCs assessed as inhibition of LPS-induced IL6 release incubated for 15 mins prior to LPS challenge measured after 24 hrs by HTRF assay; type: functional, cell-based
PBMC [3] = test: Antiinflammatory activity in human PBMCs assessed as inhibition of LPS-induced TNFalpha release incubated for 15 mins prior to LPS challenge measured after 24 hrs by HTRF assay; type: functional, cell-based
PBMC [4] = test: Antiinflammatory activity in human PBMCs assessed as inhibition of LPS-induced IL6 release at 100 uM incubated for 15 mins prior to LPS challenge measured after 24 hrs by HTRF assay relative to control; type: functional
PBMC [5] = test: Antiinflammatory activity in human PBMCs assessed as inhibition of LPS-induced IL1-beta release at 100 uM incubated for 15 mins prior to LPS challenge measured after 24 hrs by HTRF assay relative to control; type: functional
[6] = AUC in CD1 mouse at 10 mg/kg, po; type: ADME, organism-based; parameters: dose 10 mg/kg, route oral; conditions: plasma
[7] = AUC in CD1 mouse at 5 mg/kg, iv; type: ADME, organism-based; parameters: dose 5 mg/kg, route intravenous; conditions: plasma
[8] = Terminal half life in CD1 mouse at 5 mg/kg, iv; type: ADME, organism-based; parameters: dose 5 mg/kg, route intravenous; conditions: in vivo, read-out: beta t1/2 (converted)
[9] = Tmax in CD1 mouse at 10 mg/kg, po; type: ADME, organism-based; parameters: dose 10 mg/kg, route oral; conditions: in vivo
[10] = Oral bioavailability in CD1 mouse at 10 mg/kg; type: ADME, organism-based; conditions: in vivo
[11] = Clearance in CD1 mouse at 5 mg/kg, iv; type: ADME, organism-based; parameters: dose 5 mg/kg, route intravenous; conditions: in vivo
[12] = Cmax in CD1 mouse at 10 mg/kg, po; type: ADME, organism-based; parameters: dose 10 mg/kg, route oral; conditions: in vivo
PBMC [13] = test: Antiinflammatory activity in human PBMCs assessed as inhibition of LPS-induced TNFalpha release at 100 uM incubated for 15 mins prior to LPS challenge measured after 24 hrs by HTRF assay relative to control; type: functional
[14] = Volume of distribution at steady state in CD1 mouse at 5 mg/kg, iv; type: ADME, organism-based; parameters: dose 5 mg/kg, route intravenous; conditions: in vivo, read-out: Vdss
[15] = Terminal half life in CD1 mouse at 10 mg/kg, po; type: ADME, organism-based; parameters: dose 10 mg/kg, route oral; conditions: in vivo, read-out: beta t1/2 (converted)
PBMC [16] = test: Antiinflammatory activity in human PBMCs assessed as inhibition of LPS-induced IL6 release at 10 uM incubated for 15 mins prior to LPS challenge measured after 24 hrs by HTRF assay relative to control; type: functional

Row | Compound | IC50 (PBMC [1]) [µM] | IC50 (PBMC [2]) [µM] | IC50 (PBMC [3]) [µM] | inhibition at 100 µM (PBMC [4]) [%] | inhibition at 100 µM (PBMC [5]) [%] | AUC [6] [ng·h/mL] | AUC [7] [ng·h/mL] | half-life [8] [h] | Tmax [9] [h] | bioavailability [10] [%] | clearance [11] [mL/min/kg] | Cmax [12] [ng/mL] | inhibition at 100 µM (PBMC [13]) [%] | Vd [14] [L/kg] | half-life [15] [h] | inhibition at 10 µM (PBMC [16]) [%]
1 | Nc1cccc(Oc2ccc3c(c2)B(O)OC3)c1 | > 10 | > 10 | > 10 | < 40 | < 40 |  |  |  |  |  |  |  |  |  |  | 
2 | Cl.NCc1ccc(Oc2ccc3c(c2)B(O)OC3)c(F)c1 | 0.043 | 0.033 | 0.041 | 80 | 80 | 533 | 1740 | 0.65 | 0.25 | 15 | 38 | 142 | 80 | 2.14 | 2.43 | 
3 | Cl.NCc1ccc(Oc2ccc3c(c2)B(O)OC3)c(Cl)c1 |  |  |  |  |  | 2660 | 2260 | 1.39 | 0.25 | 67 | 36.8 | 1450 |  | 2.87 | 2.82 | 
4 | OB1OCc2ccc(Oc3cccc(CN4CCOCC4)c3)cc21 | 4.4 | > 10 | 5.9 | < 40 | 40 |  |  |  |  |  |  |  | 80 |  |  | 
5 | CN1CCN(Cc2cccc(Oc3ccc4c(c3)B(O)OC4)c2)CC1 | 7.1 | > 10 | > 10 | < 40 | 40 |  |  |  |  |  |  |  | < 40 |  |  | 
6 | C[C@H]1C[C@H]2[C@@H]3CCC4=CC(=O)C=C[C@]4(C)[C@@]3(F)[C@@H](O)C[C@]2(C)[C@@]1(O)C(=O)CCl [CLOBETASOL] | 4.4 | 4.2 | 0.007 | 80 | 80 |  |  |  |  |  |  |  | 80 |  |  | 
7 | C[C@@H]1C[C@H]2[C@@H]3CCC4=CC(=O)C=C[C@]4(C)[C@@]3(F)[C@@H](O)C[C@]2(C)[C@@]1(O)C(=O)CO [DEXAMETHASONE] | 0.0095 |  | 0.017 |  | 80 |  |  |  |  |  |  |  | 80 |  |  | 43
8 | C[S+]([O-])c1ccc(-c2nc(-c3ccc(F)cc3)c(-c3ccncc3)[nH]2)cc1 (stereo not drawn) [SB-203580] | 0.34 | > 10 | 1 | < 40 | 80 |  |  |  |  |  |  |  | 80 |  |  | 
